pKi: −log10 of the molar value.
Legend:
[1] = biological target: PIM2 (Homo sapiens (Human), UniProt Q9P1W9); experiment: Pim kinase binding activity, Caliper LC3000 microfluidic peptide phosphorylation assay, PIM2; format: biochemical; details: 10 μM ATP, 90 min, room temperature; read-out: PIM2 LC3K (KI)
Experimental: (§1) A fluorescent-labeled Pim-specific peptide substrate, was custom synthesized by American Peptide Company (Sunnyvale, Calif.). Reaction Buffer contained 10 mM HEPES, pH 7.2, 10 mM MgCl2, 0.01% Tween 20, 2 mM DTT. Termination Buffer contained 190 mM HEPES, pH 7.2, 0.015% Brij-35, 0.2% Coating Reagent 3 (Caliper Life Sciences, Hopkinton, Mass.), 20 mM EDTA. Separation Buffer contained 100 mM HEPES, pH 7.2, 0.015% Brij-35, 0.1% Coating Reagent 3, 1:200 Coating Reagent 8 (Caliper Life Sciences, Hopkinton, Mass.), 10 mM EDTA and 5% DMSO.
(§2) PIM reactions were carried out in a final volume of 10 μL per well in a 384-well plate. […] After 90 minutes of incubation at room temperature, the phosphorylation reaction was stopped by the addition of 10 μL Termination Buffer. The product and substrate in each independent reaction were separated on a 12-sipper microfluidic chip (Caliper Life Sciences, Hopkinton, Mass.) run on a Caliper LC3000® (Caliper Life Sciences, Hopkinton, Mass.). The separation of product and substrate was optimized by choosing voltages and pressure using Caliper's Optimizer software (Hopkinton, Mass.). […] Substrate conversion was calculated from the electropherogram using HTS Well Analyzer software (Caliper Life Sciences, Hopkinton, Mass.). Ki values for the test compound were calculated.

[2] = biological target: PIM3 (Homo sapiens (Human), UniProt Q86V86); experiment: Pim kinase binding activity, Caliper LC3000 microfluidic peptide phosphorylation assay, PIM3; format: biochemical; details: 10 μM ATP, 90 min, room temperature; read-out: PIM3 LC3K (KI)
Experimental: as §1, §2

PIM2, sequence (Q9P1W9 whole entry): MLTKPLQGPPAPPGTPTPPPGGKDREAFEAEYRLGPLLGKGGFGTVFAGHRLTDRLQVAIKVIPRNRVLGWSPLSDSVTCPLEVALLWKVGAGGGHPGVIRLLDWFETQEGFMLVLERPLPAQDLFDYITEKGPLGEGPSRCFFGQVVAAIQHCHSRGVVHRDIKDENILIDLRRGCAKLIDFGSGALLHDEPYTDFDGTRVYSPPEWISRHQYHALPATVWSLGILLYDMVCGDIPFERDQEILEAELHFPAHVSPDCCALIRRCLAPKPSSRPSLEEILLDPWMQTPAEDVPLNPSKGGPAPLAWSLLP

| pKi [1] | pKi [2] | SMILES |
| --- | --- | --- |
| 8.32 | 9.48 | Cc1cncc(-c2cc3c(cn2)cnn3-c2cccc(N3CCCC(N)C3C)n2)n1 (single isomer, unassigned) [Compound 203, 2-methyl-1-[6-[6-(6-methylpyrazin-2-yl)pyrazolo[4,3-c]pyridin-1-yl]-2-pyridyl]piperidin-3-amine] |
| 9.32 | 10.60 | Cc1cncc(-c2cc3c(cn2)cnn3-c2cccc(N3CCCC(N)C3C)n2)n1 (single isomer, unassigned) [Compound 204, 2-methyl-1-[6-[6-(6-methylpyrazin-2-yl)pyrazolo[4,3-c]pyridin-1-yl]-2-pyridyl]piperidin-3-amine] |
| 8.34 | 9.35 | Cc1cncc(-c2cc3c(cn2)cnn3-c2cccc(C3CCNCC3)n2)n1 [Compound 166, 6-(6-methylpyrazin-2-yl)-1-[6-(4-piperidyl)-2-pyridyl]pyrazolo[4,3-c]pyridine] |
| 9.50 | 10.33 | Cc1cncc(-c2cc3c(cn2)cnn3-c2ccc(Cl)c(N3CCC[C@H](N)C3)n2)n1 [Compound 176, (S)-1-(3-chloro-6-(6-(6-methylpyrazin-2-yl)-1H-pyrazolo[4,3-c]pyridin-1-yl)pyridin-2-yl)piperidin-3-amine] |
| 8.62 | 10.12 | Cc1cncc(-c2cc3c(cn2)cnn3-c2cccc(N3CCNC(C)CC3)n2)n1 (stereo not drawn) [Compound 184, 1-[6-(5-methyl-1 4-diazepan-1-yl)-2-pyridyl]-6-(6-methylpyrazin-2-yl)pyrazolo[4,3-c]pyridine] |
| 9.18 | 10.48 | Cc1cncc(-c2cc3c(cn2)cnn3-c2cccc(N3CCNC[C@H]3C)n2)n1 [Compound 191, 1-[6-[(2R)-2-methylpiperazin-1-yl]-2-pyridyl]-6-(6-methylpyrazin-2-yl)pyrazolo[4,3-c]pyridine] |
| 8.99 | 10.24 | Cc1cncc(-c2cc3c(cn2)cnn3-c2cccc(N3CCCC(N)C3C)n2)n1 (stereo not drawn) [Compound 195, 2-methyl-1-[6-[6-(6-methylpyrazin-2-yl)pyrazolo[4,3-c]pyridin-1-yl]-2-pyridyl]piperidin-3-amine] |
| 9.06 | – | Cc1cncc(-c2cc3c(cn2)cnn3-c2cccc(N3CCNC[C@@H]3C)n2)n1 [Compound 196, 1-[6-[(2S)-2-methylpiperazin-1-yl]-2-pyridyl]-6-(6-methylpyrazin-2-yl)pyrazolo[4,3-c]pyridine] |
| 9.50 | 10.96 | Cc1cncc(-c2cc3c(cn2)cnn3-c2ccc(F)c(N3CCC[C@H](N)C3)n2)n1 [Compound 215, (S)-1-(3-fluoro-6-(6-(6-methylpyrazin-2-yl)-1H-pyrazolo[4,3-c]pyridin-1-yl)pyridin-2-yl)piperidin-3-amine] |
| 6.00 | – | Cc1cncc(-c2cc3c(cn2)cnn3-c2ccc(=O)n([C@H]3CCCNC3)n2)n1 [Compound 289, (S)-6-(6-(6-methylpyrazin-2-yl)-1H-pyrazolo[4,3-c]pyridin-1-yl)-2-(piperidin-3-yl)pyridazin-3(2H)-one] |

Second part, the compound before the results:

| SMILES | pKi [1] | pKi [2] |
| --- | --- | --- |
| CCc1cncc(-c2cc3c(cn2)cnn3-c2cccc(N3CCNC[C@H](O)C3)n2)c1 (single isomer, unassigned) [Compound 121] | 7.98 | 9.52 |
| CCn1cc(-c2cc3c(cn2)cnn3-c2cccc(N3CCNCC3)n2)cn1 [Compound 101, 6-(1-ethylpyrazol-4-yl)-1-(6-piperazin-1-yl-2-pyridyl)pyrazolo[4,3-c]pyridine] | 7.84 | 9.17 |
| CC(C)c1cncc(-c2cc3c(cn2)cnn3-c2cccc(N3CCCNCC3)n2)c1 [Compound 103, 1-(6-(1,4-diazepan-1-yl)pyridin-2-yl)-6-(5-isopropylpyridin-3-yl)-1H-pyrazolo[4,3-c]pyridine] | 8.56 | 10.19 |
| CC(C)c1cncc(-c2cc3c(cn2)cnn3-c2cccc(N3CCNCC3)n2)c1 [Compound 105, 6-(5-isopropylpyridin-3-yl)-1-(6-(piperazin-1-yl)pyridin-2-yl)-1H-pyrazolo[4,3-c]pyridine] | 8.15 | 9.74 |
| CCc1cncc(-c2cc3c(cn2)cnn3-c2cccc(N3CCNCC(O)C3)n2)c1 (stereo not drawn) [Compound 106, 1-(6-(6-(5-ethylpyridin-3-yl)-1H-pyrazolo[4,3-c]pyridin-1-yl)pyridin-2-yl)-1,4-diazepan-6-ol] | 8.14 | – |
| CC(C)c1cncc(-c2cc3c(cn2)cnn3-c2cccc(N3CCC[C@@H](N)C3)n2)c1 [Compound 107, (R)-1-(6-(6-(5-isopropylpyridin-3-yl)-1H-pyrazolo[4,3-c]pyridin-1-yl)pyridin-2-yl)piperidin-3-amine] | 8.02 | 9.69 |
| CC(C)c1cncc(-c2cc3c(cn2)cnn3-c2cccc(N3CCC[C@H](N)C3)n2)c1 [Compound 108, (3S)-1-[6-[6-(5-isopropyl-3-pyridyl)pyrazolo[4,3-c]pyridin-1-yl]-2-pyridyl]piperidin-3-amine] | 8.71 | 10.31 |
| Cc1cc(-c2cc3c(cn2)cnn3-c2cccc(N3CCCNCC3)n2)sn1 [Compound 120, 5-[1-[6-(1 4-diazepan-1-yl)-2-pyridyl]pyrazolo[4,3-c]pyridin-6-yl]-3-methyl-isothiazole] | 8.33 | 9.77 |
| CCn1cc(-c2cc3c(cn2)cnn3-c2cccc(N3CCCNCC3)n2)cn1 [Compound 125, 1-(6-(1,4-diazepan-1-yl)pyridin-2-yl)-6-(1-ethyl-1H-pyrazol-4-yl)-1H-pyrazolo[4,3-c]pyridine] | 8.37 | – |
| CCc1cncc(-c2cc3c(cn2)cnn3-c2ccc(C3CC3)c(N3CCC[C@H](N)C3)n2)c1 [Compound 139, (S)-1-(3-cyclopropyl-6-(6-(5-ethylpyridin-3-yl)-1H-pyrazolo[4,3-c]pyridin-1-yl)pyridin-2-yl)piperidin-3-amine] | 9.73 | 10.46 |
| CCc1cncc(-c2cc3c(cn2)cnn3-c2cccc(N3CCC[C@H](N)C3)n2)n1 [Compound 156, (3S)-1-[6-[6-(6-ethylpyrazin-2-yl)pyrazolo[4,3-c]pyridin-1-yl]-2-pyridyl]piperidin-3-amine] | 9.43 | 10.85 |
| FC(F)Cn1cc(-c2cc3c(cn2)cnn3-c2cccc(N3CCCNCC3)n2)cn1 [Compound 162, 1-(6-(1,4-Diazepan-1-yl)pyridin-2-yl)-6-(1-(2,2-difluoroethyl)-1H-pyrazol-4-yl)-1H-pyrazolo[4,3-c]pyridine] | 8.65 | 9.09 |
| Cc1cncc(-c2cc3c(cn2)cnn3-c2cccc(N3CC[C@H](N)C3)n2)n1 [Compound 167, (3S)-1-[6-[6-(6-methylpyrazin-2-yl)pyrazolo[4,3-c]pyridin-1-yl]-2-pyridyl]pyrrolidin-3-amine] | 8.64 | 9.47 |
| FC(F)(F)Cn1cc(-c2cc3c(cn2)cnn3-c2ccnc(N3CCCNCC3)n2)cn1 [Compound 179, 1-(2-(1,4-Diazepan-1-yl)pyrimidin-4-yl)-6-(1-(2,2,2-trifluoroethyl)-1H-pyrazol-4-yl)-1H-pyrazolo-[4,3-c]pyridine] | – | 8.75 |
| c1cc(N2CCCNCC2)nc(-n2ncc3cnc(-c4cn[nH]c4)cc32)c1 [Compound 180, 1-(6-(1,4-Diazepan-1-yl)pyridin-2-yl)-6-(1H-pyrazol-4-yl)-1H-pyrazolo[4,3-c]pyridine] | 8.80 | 10.07 |
| Cc1cncc(-c2cc3c(cn2)cnn3-c2cccc(N3CCCCC(N)C3)n2)n1 (stereo not drawn) [Compound 187, 1-[6-[6-(6-methylpyrazin-2-yl)pyrazolo[4,3-c]pyridin-1-yl]-2-pyridyl]azepan-3-amine] | 8.97 | – |
| Cc1nc(-c2cc3c(cn2)cnn3-c2cccc(N3CCCNCC3)n2)cnc1N [Compound 208, 5-(1-(6-(1,4-diazepan-1-yl)pyridin-2-yl)-1H-pyrazolo[4,3-c]pyridin-6-yl)-3-methylpyrazin-2-amine] | 9.13 | 10.85 |
| Cc1cncc(-c2cc3c(cn2)cnn3-c2ccc(C(F)(F)F)c(N3CCC[C@H](N)C3)n2)n1 [Compound 220, (S)-1-(6-(6-(6-methylpyrazin-2-yl)-1H-pyrazolo[4,3-c]pyridin-1-yl)-3-(trifluoromethyl)pyridin-2-yl)piperidin-3-amine] | 9.94 | 11.05 |
| Cn1cc(-c2cc3c(cn2)cnn3-c2cccc(N3CCCNCC3)n2)cn1 [Compound 224, 1-(6-(1,4-Diazepan-1-yl)pyridin-2-yl)-6-(1-methyl-1H-pyrazol-4-yl)-1H-pyrazolo[4,3-c]pyridine] | 8.30 | 10.01 |
| Cc1cncc(-c2cc3c(cn2)cnn3-c2ccc(C(F)F)c(N3CCC[C@H](N)C3)n2)n1 [Compound 227, (S)-1-(3-(difluoromethyl)-6-(6-(6-methylpyrazin-2-yl)-1H-pyrazolo[4,3-c]pyridin-1-yl)pyridin-2-yl)piperidin-3-amine] | – | 10.72 |
| Cc1cncc(-c2cc3c(cn2)cnn3-c2cccc(N(C)C)n2)n1 [Compound 296, N,N-dimethyl-6-(6-(6-methylpyrazin-2-yl)-1H-pyrazolo[4,3-c]pyridin-1-yl)pyridin-2-amine] | – | 9.25 |

— US9434725B2, “5-azaindazole compounds and methods of use” (priority 2012, dated 2016)
